In publication PMC7827406, “Structure–Activity Relationship (SAR) Study of Spautin-1 to Entail the Discovery of Novel NEK4 Inhibitors” (International Journal of Molecular Sciences, 2021):
Read-outs that look alike come from different tables or passages of the source.

Columns and labels:
Test in all cases: biochemical
Parameters in all cases: Eurofins KinaseProfiler full panel at Km ATP, residual kinase activity (%) relative to DMSO
CK2α2(h) = target: T1, CK2α2(h) (Homo sapiens, UniProt P19784)
T1 construct: gene CSNK2A2
Procedure, shortened: (§1)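 Two 10 µM single-concentration screens were run: a competition-binding screen, in which DNA-tagged kinase bound to immobilized ligands was quantified by qPCR, and a radiometric activity panel at Km ATP. Each is expressed as residual kinase activity (%).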

BTK(R28H)(h) = BTK(R28H)(h) (Homo sapiens, UniProt Q06187, R28H)
Procedure, shortened: as §1

CDK17/cyclinY(h) = CDK17/cyclinY(h) (Homo sapiens, UniProt Q00537)
Procedure, shortened: as §1

Aurora-C(h) = target: T2, Aurora-C(h) (Homo sapiens, UniProt Q9UQB9)
T2 construct: gene AURKC
T2 sequence (Q9UQB9 1-309): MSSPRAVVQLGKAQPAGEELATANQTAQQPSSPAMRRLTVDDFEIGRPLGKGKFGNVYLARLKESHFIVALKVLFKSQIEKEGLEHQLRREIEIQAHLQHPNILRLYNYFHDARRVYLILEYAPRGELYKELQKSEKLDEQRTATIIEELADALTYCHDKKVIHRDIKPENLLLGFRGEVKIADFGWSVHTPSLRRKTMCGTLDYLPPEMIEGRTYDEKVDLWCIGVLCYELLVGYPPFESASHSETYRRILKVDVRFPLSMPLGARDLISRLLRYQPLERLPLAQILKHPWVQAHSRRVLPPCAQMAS
Procedure, shortened: as §1

CDK16/cyclinY(h) = CDK16/cyclinY(h) (Homo sapiens, UniProt Q00536)
Procedure, shortened: as §1

CDK3/cyclinE(h) = CDK3/cyclinE(h) (Homo sapiens, UniProt Q00526)
Procedure, shortened: as §1

PAK3(h) = PAK3(h) (Homo sapiens, UniProt O75914)
Procedure, shortened: as §1

SIK3(h) = SIK3(h) (Homo sapiens, UniProt Q9Y2K2)
Procedure, shortened: as §1

JAK3(h) = target: T3, JAK3(h) (Homo sapiens, UniProt P52333)
T3 sequence (P52333 1-1124): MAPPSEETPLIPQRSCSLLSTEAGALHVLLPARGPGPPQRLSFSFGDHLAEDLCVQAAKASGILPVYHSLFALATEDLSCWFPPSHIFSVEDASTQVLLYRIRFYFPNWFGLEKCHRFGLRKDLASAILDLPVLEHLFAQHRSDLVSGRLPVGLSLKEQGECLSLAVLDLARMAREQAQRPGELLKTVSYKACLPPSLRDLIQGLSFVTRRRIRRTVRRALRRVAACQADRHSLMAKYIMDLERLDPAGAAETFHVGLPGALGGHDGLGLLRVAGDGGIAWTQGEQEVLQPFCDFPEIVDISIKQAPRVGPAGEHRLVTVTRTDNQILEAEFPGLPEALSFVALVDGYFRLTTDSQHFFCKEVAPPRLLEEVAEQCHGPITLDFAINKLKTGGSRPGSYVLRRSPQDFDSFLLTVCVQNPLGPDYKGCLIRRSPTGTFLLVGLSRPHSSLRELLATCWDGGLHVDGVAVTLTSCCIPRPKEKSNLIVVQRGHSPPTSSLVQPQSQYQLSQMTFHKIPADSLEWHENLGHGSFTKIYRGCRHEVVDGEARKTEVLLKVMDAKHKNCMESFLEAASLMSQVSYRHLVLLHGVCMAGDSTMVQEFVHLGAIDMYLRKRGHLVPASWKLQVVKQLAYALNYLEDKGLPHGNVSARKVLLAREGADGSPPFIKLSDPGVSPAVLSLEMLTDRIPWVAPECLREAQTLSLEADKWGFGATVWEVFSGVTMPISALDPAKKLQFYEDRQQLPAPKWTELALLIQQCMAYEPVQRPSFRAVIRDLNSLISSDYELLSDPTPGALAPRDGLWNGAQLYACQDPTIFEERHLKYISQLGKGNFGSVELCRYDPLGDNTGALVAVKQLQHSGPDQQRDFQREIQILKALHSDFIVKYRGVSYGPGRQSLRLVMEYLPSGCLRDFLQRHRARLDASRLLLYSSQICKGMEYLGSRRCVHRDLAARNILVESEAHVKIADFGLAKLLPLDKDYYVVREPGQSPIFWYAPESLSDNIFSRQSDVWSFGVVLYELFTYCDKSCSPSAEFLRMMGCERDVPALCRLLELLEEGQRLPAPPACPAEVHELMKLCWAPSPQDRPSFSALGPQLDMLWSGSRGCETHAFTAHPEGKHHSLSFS
Procedure, shortened: as §1

[1] = read-out: Residual activity (%) 5ay
[2] = read-out: Residual activity (%) Spautin-1 5aa
[3] = read-out: Residual activity (%) 5at
[4] = read-out: Residual activity (%) 5as

Sequence of CDK17/cyclinY(h) (Q00537 whole entry): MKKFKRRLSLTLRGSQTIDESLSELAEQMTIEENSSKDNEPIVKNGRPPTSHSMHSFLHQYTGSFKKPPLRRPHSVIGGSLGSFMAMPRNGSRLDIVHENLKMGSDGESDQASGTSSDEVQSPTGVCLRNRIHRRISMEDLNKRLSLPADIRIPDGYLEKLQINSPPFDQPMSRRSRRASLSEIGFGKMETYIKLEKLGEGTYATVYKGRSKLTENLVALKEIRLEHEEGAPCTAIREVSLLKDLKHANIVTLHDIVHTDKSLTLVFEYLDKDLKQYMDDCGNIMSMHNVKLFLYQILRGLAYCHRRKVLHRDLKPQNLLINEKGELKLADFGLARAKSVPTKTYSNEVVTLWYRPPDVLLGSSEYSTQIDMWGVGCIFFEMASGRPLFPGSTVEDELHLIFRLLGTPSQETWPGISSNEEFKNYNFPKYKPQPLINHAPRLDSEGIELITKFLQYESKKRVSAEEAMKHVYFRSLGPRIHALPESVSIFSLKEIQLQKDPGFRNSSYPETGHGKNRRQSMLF
Sequence of CDK17/cyclinY(h) (Q8ND76 whole entry partner): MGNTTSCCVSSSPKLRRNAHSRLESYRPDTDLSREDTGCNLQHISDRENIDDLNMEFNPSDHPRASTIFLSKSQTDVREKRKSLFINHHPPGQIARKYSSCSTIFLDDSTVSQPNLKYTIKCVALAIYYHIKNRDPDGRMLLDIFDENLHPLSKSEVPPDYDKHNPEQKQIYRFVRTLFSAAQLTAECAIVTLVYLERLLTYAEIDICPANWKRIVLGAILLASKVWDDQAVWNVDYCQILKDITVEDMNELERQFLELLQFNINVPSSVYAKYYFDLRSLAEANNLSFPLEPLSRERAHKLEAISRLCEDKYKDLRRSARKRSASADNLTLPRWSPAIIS
Sequence of BTK(R28H)(h) (Q06187 whole entry R28H): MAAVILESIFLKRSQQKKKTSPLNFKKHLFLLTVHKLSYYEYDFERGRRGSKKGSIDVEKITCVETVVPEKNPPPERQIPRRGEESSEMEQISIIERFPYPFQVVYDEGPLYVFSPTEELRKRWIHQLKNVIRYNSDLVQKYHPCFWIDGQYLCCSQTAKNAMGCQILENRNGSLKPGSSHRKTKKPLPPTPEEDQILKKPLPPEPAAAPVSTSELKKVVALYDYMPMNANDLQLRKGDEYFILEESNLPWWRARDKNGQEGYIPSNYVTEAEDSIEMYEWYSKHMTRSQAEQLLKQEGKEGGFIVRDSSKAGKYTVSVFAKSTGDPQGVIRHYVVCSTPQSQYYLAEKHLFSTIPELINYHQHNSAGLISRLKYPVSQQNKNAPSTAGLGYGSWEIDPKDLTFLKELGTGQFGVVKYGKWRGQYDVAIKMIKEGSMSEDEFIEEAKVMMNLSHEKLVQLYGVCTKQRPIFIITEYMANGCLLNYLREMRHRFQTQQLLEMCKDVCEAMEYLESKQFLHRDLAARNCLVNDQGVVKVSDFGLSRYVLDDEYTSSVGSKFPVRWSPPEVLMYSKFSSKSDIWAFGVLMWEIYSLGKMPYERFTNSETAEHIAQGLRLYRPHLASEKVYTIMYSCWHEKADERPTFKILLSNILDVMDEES
Sequence of CDK16/cyclinY(h) (Q00536 whole entry): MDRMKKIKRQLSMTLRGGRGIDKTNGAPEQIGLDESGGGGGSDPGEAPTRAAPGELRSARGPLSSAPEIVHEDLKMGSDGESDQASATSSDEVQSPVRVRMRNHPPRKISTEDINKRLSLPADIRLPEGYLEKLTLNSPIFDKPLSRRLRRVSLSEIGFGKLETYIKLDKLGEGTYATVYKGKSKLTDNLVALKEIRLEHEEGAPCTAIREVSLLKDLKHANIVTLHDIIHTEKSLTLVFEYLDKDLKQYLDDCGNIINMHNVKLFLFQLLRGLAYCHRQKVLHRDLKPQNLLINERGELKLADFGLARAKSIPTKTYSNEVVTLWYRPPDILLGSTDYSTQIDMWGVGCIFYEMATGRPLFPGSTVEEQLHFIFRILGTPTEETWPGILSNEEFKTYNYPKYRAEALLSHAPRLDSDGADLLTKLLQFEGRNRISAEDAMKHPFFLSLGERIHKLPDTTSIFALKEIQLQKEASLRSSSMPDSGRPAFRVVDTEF
Sequence of CDK16/cyclinY(h) (Q8ND76 whole entry partner): as the sequence (Q8ND76 whole entry partner) above
Sequence of PAK3(h) (O75914 whole entry): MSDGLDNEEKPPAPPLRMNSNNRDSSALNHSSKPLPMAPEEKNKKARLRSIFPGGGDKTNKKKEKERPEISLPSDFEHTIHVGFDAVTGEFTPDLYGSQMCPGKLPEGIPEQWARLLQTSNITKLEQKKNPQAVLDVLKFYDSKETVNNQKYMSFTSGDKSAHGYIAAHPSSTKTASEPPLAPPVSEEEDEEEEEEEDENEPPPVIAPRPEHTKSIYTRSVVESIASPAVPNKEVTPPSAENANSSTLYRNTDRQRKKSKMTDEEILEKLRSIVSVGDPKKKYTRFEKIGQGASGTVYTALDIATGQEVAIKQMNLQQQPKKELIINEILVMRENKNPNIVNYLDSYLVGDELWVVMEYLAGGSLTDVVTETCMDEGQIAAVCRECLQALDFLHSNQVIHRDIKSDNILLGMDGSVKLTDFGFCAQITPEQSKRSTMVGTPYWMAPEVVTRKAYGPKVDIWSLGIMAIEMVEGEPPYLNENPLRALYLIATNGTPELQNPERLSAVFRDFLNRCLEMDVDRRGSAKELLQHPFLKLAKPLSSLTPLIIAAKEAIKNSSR
Sequence of SIK3(h) (Q9Y2K2 whole entry): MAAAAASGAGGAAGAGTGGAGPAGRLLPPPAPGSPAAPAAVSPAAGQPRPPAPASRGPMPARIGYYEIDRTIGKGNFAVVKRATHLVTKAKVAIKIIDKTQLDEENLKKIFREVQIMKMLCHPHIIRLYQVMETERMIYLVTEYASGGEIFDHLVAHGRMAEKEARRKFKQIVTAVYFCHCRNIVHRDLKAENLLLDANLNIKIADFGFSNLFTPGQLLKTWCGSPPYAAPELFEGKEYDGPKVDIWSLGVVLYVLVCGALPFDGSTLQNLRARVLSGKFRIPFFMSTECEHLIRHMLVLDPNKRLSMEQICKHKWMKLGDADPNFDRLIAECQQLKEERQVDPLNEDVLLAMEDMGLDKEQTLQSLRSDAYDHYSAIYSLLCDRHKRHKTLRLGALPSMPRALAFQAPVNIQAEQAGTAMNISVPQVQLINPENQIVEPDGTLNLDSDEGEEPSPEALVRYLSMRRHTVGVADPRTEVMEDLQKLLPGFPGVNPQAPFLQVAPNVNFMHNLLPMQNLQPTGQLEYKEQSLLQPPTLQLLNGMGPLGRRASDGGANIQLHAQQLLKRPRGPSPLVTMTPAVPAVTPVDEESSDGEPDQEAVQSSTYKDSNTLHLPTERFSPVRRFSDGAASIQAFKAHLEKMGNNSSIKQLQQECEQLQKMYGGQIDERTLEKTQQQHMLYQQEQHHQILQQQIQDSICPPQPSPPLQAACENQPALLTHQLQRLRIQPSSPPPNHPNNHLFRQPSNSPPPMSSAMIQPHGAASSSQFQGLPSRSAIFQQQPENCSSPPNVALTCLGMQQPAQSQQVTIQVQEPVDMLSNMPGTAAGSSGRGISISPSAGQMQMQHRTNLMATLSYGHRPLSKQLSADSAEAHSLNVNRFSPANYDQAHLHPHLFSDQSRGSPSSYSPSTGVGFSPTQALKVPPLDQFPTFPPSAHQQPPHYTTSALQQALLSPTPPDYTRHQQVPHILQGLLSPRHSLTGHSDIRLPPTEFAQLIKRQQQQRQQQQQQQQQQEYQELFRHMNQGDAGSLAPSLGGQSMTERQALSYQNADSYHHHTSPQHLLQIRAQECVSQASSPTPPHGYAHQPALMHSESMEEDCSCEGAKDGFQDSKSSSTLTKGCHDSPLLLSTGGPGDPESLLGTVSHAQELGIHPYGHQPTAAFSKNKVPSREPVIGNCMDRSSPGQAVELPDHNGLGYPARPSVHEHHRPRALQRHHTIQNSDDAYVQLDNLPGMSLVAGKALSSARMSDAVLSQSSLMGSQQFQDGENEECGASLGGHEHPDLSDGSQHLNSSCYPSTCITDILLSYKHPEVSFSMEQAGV
T1 sequence (P19784 whole entry): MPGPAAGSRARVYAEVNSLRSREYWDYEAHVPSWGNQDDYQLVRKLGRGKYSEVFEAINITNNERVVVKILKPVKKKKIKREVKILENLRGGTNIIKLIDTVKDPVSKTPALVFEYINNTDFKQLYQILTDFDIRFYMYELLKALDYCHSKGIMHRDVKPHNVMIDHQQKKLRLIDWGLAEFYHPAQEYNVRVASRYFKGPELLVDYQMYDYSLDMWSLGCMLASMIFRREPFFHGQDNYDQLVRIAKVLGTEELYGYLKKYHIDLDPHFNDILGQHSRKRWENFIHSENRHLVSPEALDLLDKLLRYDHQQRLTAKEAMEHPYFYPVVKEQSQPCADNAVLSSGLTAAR
Sequence of CDK3/cyclinE(h) (Q00526 whole entry): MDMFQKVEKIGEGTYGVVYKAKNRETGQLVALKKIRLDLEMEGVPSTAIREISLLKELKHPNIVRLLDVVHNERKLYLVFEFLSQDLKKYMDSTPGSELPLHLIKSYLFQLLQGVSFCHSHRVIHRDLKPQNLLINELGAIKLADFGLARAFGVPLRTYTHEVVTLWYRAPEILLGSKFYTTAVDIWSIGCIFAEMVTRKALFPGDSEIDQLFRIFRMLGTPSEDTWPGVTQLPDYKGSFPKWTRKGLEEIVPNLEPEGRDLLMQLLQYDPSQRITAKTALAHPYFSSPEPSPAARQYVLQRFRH
Sequence of CDK3/cyclinE(h) (P24864 whole entry partner): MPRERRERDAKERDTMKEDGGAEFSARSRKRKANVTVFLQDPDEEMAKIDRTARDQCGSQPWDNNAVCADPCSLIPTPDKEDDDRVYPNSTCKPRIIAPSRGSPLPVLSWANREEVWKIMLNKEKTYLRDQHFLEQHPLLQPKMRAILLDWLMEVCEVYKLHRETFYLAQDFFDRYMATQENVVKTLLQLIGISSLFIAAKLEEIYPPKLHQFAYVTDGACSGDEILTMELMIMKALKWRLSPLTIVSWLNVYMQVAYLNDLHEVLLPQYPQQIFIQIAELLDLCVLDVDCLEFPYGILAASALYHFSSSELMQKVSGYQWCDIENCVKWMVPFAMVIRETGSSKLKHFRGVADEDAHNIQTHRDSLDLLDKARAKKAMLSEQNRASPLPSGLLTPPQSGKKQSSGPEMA

COc1ccc2ncnc(Nc3cccc(F)c3)c2c1 [5ay, N-(3-Fluorophenyl)-6-Methoxy-4-Quinazolinamine]
remaining activity at 10 µM (CK2α2(h); [1]): 83% | remaining activity at 10 µM (BTK(R28H)(h); [1]): 103% | remaining activity at 10 µM (CDK17/cyclinY(h); [1]): 74% | remaining activity at 10 µM (Aurora-C(h); [1]): 106% | remaining activity at 10 µM (CDK16/cyclinY(h); [1]): 81% | remaining activity at 10 µM (CDK3/cyclinE(h); [1]): 101% | remaining activity at 10 µM (PAK3(h); [1]): 99% | remaining activity at 10 µM (SIK3(h); [1]): 81% | remaining activity at 10 µM (JAK3(h); [1]): 91%

Fc1ccc(CNc2ncnc3ccc(F)cc23)cc1 [5aa, 6-Fluoro-N-(4-fluorobenzyl)-4-Quinazolinamine]
remaining activity at 10 µM (CK2α2(h); [2]): 101% | remaining activity at 10 µM (BTK(R28H)(h); [2]): 88% | remaining activity at 10 µM (CDK17/cyclinY(h); [2]): 82% | remaining activity at 10 µM (Aurora-C(h); [2]): 120% | remaining activity at 10 µM (CDK16/cyclinY(h); [2]): 90% | remaining activity at 10 µM (CDK3/cyclinE(h); [2]): 93% | remaining activity at 10 µM (PAK3(h); [2]): 96% | remaining activity at 10 µM (SIK3(h); [2]): 95% | remaining activity at 10 µM (JAK3(h); [2]): 94%

Fc1ccc2ncnc(NCCc3ccc(Cl)cc3)c2c1 [5at, N-[2-(4-Chlorophenyl)Ethyl]-6-Fluoro-4-Quinazolinamine]
remaining activity at 10 µM (CK2α2(h); [3]): 86% | remaining activity at 10 µM (BTK(R28H)(h); [3]): 101% | remaining activity at 10 µM (CDK17/cyclinY(h); [3]): 88% | remaining activity at 10 µM (Aurora-C(h); [3]): 118% | remaining activity at 10 µM (CDK16/cyclinY(h); [3]): 104% | remaining activity at 10 µM (CDK3/cyclinE(h); [3]): 107% | remaining activity at 10 µM (PAK3(h); [3]): 93% | remaining activity at 10 µM (SIK3(h); [3]): 71% | remaining activity at 10 µM (JAK3(h); [3]): 92%

Fc1ccc(CCNc2ncnc3ccc(F)cc23)cc1 [5as, 6-Fluoro-N-[2-(4-Fluorophenyl)Ethyl]-4-Quinazolinamine]
remaining activity at 10 µM (CK2α2(h); [4]): 95% | remaining activity at 10 µM (BTK(R28H)(h); [4]): 103% | remaining activity at 10 µM (CDK17/cyclinY(h); [4]): 80% | remaining activity at 10 µM (Aurora-C(h); [4]): 102% | remaining activity at 10 µM (CDK16/cyclinY(h); [4]): 114% | remaining activity at 10 µM (CDK3/cyclinE(h); [4]): 105% | remaining activity at 10 µM (PAK3(h); [4]): 107% | remaining activity at 10 µM (SIK3(h); [4]): 79% | remaining activity at 10 µM (JAK3(h); [4]): 94%
